Measurements reported in PMC7736581, “Activation of the IRE1 RNase through remodeling of the kinase front pocket by ATP-competitive ligands” (Nature Communications, 2020).

How the values were obtained:
Experiment in all cases: biochemical
Parameters in all cases: Invitrogen kinase panel: Z'Lyte activity (ATP at Km) or LanthaScreen competitive ATP-site binding, percent inhibition
AKT2 = AKT2 (Homo sapiens, UniProt P31751)
BMPR1A = BMPR1A (Homo sapiens, UniProt P36894)
Blk = Blk (Homo sapiens, UniProt P51451)
Blk, sequence (P51451 whole entry): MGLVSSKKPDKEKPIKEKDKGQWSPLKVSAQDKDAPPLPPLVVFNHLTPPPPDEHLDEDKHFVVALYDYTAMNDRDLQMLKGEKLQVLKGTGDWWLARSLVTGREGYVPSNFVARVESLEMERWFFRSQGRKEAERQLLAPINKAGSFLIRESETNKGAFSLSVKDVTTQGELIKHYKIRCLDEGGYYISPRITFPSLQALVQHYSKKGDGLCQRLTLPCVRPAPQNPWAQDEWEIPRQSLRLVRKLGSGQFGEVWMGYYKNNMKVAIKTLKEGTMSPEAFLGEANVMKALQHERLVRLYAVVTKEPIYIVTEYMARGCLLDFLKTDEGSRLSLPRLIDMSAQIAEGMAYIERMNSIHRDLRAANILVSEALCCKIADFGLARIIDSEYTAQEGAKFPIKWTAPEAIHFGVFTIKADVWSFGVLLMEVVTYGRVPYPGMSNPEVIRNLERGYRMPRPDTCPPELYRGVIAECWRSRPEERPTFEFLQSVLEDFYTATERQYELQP

CK1_gamma1 = biological target: T1, CK1_gamma1 (Homo sapiens, UniProt Q9HCP0)
T1 construct: gene CSNK1G1

DAPK1 = DAPK1 (Homo sapiens, UniProt P53355)
DDR1 = DDR1 (Homo sapiens, UniProt Q08345)
DRAK1 = biological target: T2, DRAK1 (Homo sapiens, UniProt Q9UEE5)
T2 construct: gene STK17A

Flt4 = Flt4 (Homo sapiens, UniProt P35916)
GRK6 = GRK6 (Homo sapiens, UniProt P43250)
HIPK4 = HIPK4 (Homo sapiens, UniProt Q8NE63)
HIPK4, sequence (Q8NE63 whole entry): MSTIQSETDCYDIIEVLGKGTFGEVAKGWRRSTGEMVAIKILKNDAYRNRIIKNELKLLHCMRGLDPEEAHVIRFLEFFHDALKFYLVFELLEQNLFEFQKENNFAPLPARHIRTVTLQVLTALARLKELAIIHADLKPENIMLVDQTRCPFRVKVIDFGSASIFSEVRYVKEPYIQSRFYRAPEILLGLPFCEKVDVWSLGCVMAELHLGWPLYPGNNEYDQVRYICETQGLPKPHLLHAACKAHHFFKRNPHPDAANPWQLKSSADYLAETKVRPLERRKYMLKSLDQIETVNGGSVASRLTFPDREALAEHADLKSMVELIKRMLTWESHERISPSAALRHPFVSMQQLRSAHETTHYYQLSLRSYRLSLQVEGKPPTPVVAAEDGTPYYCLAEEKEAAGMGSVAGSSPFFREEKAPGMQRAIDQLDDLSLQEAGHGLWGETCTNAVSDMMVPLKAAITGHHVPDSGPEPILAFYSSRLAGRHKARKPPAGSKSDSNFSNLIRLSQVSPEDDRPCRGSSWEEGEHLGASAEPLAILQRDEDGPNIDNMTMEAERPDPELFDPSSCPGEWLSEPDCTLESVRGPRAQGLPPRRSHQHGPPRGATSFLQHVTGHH

IGF1R = IGF1R (Homo sapiens, UniProt P08069)
IGF1R, sequence (P08069 whole entry): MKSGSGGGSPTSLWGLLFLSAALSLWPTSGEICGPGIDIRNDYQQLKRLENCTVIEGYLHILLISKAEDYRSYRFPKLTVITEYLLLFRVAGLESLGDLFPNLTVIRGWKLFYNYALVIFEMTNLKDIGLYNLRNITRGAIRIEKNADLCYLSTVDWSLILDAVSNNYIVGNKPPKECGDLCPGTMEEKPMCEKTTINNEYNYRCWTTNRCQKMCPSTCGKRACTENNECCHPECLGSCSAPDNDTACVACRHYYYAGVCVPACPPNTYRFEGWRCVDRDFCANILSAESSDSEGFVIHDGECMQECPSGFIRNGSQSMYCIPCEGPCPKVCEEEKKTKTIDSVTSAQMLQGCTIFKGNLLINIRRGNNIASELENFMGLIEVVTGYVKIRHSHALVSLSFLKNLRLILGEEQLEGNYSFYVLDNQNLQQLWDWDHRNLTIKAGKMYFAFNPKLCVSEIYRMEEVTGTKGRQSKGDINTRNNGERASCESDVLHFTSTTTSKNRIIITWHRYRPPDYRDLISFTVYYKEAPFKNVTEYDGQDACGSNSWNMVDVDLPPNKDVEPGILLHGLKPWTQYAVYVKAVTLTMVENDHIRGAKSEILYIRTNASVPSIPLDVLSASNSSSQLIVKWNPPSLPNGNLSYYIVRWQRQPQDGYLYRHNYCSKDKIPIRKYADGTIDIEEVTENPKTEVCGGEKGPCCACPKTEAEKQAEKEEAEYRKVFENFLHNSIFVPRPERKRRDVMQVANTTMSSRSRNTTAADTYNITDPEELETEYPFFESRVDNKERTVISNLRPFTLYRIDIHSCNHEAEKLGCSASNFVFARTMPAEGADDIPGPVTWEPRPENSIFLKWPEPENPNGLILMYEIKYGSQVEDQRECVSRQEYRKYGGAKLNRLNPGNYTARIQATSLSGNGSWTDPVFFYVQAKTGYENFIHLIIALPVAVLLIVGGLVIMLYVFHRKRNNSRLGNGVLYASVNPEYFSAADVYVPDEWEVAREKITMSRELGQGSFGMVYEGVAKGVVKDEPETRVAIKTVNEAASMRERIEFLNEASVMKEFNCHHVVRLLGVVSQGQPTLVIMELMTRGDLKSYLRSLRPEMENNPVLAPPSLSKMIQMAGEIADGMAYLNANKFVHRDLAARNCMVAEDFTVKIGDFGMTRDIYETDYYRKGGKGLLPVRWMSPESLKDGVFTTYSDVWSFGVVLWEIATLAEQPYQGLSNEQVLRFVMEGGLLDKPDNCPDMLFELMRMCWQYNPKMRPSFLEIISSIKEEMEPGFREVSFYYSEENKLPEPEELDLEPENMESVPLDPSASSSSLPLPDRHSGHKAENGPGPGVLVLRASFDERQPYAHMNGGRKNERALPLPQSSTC

JAK2 = JAK2 (Homo sapiens, UniProt O60674)
LRRK2 = LRRK2 (Homo sapiens, UniProt Q5S007)
MRCK_alpha = biological target: T3, MRCK_alpha (Homo sapiens, UniProt Q5VT25)
T3 construct: gene CDC42BPA

MSSK1 = biological target: T4, MSSK1 (Homo sapiens, UniProt Q9UPE1)
T4 construct: gene SRPK3
T4 sequence (Q9UPE1 whole entry): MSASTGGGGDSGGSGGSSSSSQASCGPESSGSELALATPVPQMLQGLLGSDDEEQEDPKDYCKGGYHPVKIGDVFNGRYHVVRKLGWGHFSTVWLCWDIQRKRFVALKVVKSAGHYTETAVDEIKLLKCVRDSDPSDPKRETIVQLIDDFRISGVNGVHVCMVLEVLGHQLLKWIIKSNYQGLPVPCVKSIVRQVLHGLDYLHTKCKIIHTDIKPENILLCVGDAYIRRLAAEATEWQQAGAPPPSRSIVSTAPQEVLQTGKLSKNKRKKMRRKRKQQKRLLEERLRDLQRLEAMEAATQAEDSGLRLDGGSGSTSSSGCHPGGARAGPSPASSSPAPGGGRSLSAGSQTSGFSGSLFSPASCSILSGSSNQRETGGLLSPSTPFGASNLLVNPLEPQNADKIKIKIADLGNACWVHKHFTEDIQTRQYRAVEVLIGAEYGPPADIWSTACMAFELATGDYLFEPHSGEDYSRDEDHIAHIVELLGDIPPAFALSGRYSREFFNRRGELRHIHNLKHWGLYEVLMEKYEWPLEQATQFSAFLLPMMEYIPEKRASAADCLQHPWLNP

MST1 = biological target: T5, MST1 (Homo sapiens, UniProt Q13043)
T5 construct: gene STK4
T5 sequence (Q13043 whole entry): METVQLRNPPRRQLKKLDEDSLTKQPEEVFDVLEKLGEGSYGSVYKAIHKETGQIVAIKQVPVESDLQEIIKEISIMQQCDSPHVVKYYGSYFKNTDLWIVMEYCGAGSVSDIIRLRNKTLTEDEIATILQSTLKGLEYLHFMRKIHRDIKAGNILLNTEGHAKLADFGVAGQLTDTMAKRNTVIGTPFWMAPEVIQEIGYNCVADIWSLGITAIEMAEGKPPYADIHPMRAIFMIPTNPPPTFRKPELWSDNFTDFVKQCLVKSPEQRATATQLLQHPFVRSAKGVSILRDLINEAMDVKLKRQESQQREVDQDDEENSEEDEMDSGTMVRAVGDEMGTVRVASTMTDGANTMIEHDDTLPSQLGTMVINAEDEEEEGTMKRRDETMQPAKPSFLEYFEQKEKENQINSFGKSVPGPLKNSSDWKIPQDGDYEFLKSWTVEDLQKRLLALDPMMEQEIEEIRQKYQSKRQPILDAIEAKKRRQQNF

MYLK(smMLCK) = biological target: T6, MYLK(smMLCK) (Homo sapiens, UniProt Q15746)
T6 construct: smMLCK

PAK6 = PAK6 (Homo sapiens, UniProt Q9NQU5)
Ron = biological target: T7, Ron (Homo sapiens, UniProt Q04912)
T7 construct: gene MST1R

SGK1 = SGK1 (Homo sapiens, UniProt O00141)
SIK2 = SIK2 (Homo sapiens, UniProt Q9H0K1)
TAO2 = biological target: T8, TAO2 (Homo sapiens, UniProt Q9UL54)
T8 construct: gene TAOK2
T8 sequence (Q9UL54 whole entry): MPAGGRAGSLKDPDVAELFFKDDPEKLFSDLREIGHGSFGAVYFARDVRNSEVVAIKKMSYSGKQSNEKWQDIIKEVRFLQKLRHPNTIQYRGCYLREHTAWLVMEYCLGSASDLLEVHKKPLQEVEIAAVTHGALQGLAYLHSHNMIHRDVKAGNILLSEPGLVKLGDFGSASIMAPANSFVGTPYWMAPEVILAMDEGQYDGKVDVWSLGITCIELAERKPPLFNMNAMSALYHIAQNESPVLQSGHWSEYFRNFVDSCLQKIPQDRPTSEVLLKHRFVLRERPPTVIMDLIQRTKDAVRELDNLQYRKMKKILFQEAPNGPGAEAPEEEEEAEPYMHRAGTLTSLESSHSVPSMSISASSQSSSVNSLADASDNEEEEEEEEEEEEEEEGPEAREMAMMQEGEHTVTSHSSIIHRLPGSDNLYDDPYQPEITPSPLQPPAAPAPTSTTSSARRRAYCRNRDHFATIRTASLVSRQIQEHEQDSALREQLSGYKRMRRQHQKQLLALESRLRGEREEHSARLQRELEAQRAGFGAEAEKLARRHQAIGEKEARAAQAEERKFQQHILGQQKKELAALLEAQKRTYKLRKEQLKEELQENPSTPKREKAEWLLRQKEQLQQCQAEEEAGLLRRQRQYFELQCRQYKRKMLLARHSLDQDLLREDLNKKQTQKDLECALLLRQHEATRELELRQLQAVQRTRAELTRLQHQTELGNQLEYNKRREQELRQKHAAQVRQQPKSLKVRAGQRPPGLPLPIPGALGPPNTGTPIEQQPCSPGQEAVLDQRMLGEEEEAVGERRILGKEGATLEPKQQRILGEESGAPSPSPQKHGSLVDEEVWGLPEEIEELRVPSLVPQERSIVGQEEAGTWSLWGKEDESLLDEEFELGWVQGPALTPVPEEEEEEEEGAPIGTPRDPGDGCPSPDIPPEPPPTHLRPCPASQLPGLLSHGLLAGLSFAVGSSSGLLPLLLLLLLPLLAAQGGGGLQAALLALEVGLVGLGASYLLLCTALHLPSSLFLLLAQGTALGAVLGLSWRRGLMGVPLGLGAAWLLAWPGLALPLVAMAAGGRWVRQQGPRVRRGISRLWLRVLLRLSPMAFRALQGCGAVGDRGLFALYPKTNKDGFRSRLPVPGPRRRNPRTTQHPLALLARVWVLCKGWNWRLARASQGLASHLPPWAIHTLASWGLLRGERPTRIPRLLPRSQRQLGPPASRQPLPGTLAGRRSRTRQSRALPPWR

TNK2 = TNK2 (Homo sapiens, UniProt Q07912)
ZIPK = biological target: T9, ZIPK (Homo sapiens, UniProt O43293)
T9 construct: gene DAPK3

p38_beta = biological target: T10, p38_beta (Homo sapiens, UniProt Q15759)
T10 construct: gene MAPK11

SMILES	inhibition at 1 µM (AKT2)	inhibition at 1 µM (BMPR1A)	inhibition at 1 µM (Blk)	inhibition at 1 µM (CK1_gamma1)	inhibition at 1 µM (DAPK1)	inhibition at 1 µM (DDR1)	inhibition at 1 µM (DRAK1)	inhibition at 1 µM (Flt4)	inhibition at 1 µM (GRK6)	inhibition at 1 µM (HIPK4)	inhibition at 1 µM (IGF1R)	inhibition at 1 µM (JAK2)	inhibition at 1 µM (LRRK2)	inhibition at 1 µM (MRCK_alpha)	inhibition at 1 µM (MSSK1)	inhibition at 1 µM (MST1)	inhibition at 1 µM (MYLK(smMLCK))	inhibition at 1 µM (PAK6)	inhibition at 1 µM (Ron)	inhibition at 1 µM (SGK1)	further results
CC#CC(=O)Nc1cccc2c(Oc3ncccc3-c3ccnc(N[C@H]4CCCNC4)n3)c(C)ccc12 [G-7658]	4%	2%	7.5%	9%	-4%	29%	-4%	6.5%	1.5%	8%	5.5%	3%	8.5%	5%	7%	-0.5%	6%	11%	4%	3.5%	inhibition at 1 µM (SIK2): 6%; inhibition at 1 µM (TAO2): 74%; inhibition at 1 µM (TNK2): 2%; inhibition at 1 µM (ZIPK): 0%; inhibition at 1 µM (p38_beta): 63.5%
CCOC(=O)Nc1cccc2c(Oc3ncccc3-c3ccnc(N[C@H]4CCCNC4)n3)c(C)ccc12 [G-1749]	6%	0%	10%	-1.5%	-4%	46%	0%	5.5%	-1%	3.8%	6.5%	2.5%	-3.5%	4.5%	-1.5%	1%	1.5%	12.5%	-6%	5.5%	inhibition at 1 µM (SIK2): -16.5%; inhibition at 1 µM (TAO2): 72.5%; inhibition at 1 µM (TNK2): 1%; inhibition at 1 µM (ZIPK): 1%; inhibition at 1 µM (p38_beta): 100%
